Where a name gives a salt, the structure may show the parent alone.
What was measured:
M. smegmatis mc^2155 = format: cell-based, Mycobacterium smegmatis
E. coli BL21 = test: Antibiotic gradient plate susceptibility of E. coli transformants with plasmids bearing E. coli mar genes; format: cell-based, Escherichia coli
From the text: PCR oligonucleotide primers were used to prepare a wild-type marA amplicon from E. coli AG100 (A. M. George, et al, J. Bacteriol., 1983, 155:531-540) chromosomal DNA, based on the annotated sequence (S. P. Cohen, et al. J. Bacteriol., 1993, 175:1484-1492). The oligonucleotide primers corresponded with nucleotide positions 1893 to 1910 and 2265 to 2282 and contained terminal EcoRI restriction enzyme sites to allow insertion of marA in frame with the hsp60 mycobacterial heat shock promoter resident on the E. coli-Mycobacterium shuttle plasmid pMV261 (W. R. Jacobs, et al. Microbiol. Immunol., 1990, 155:153-160). […] These mutant marA genes were ligated to pMV261 and pET13a for testing in M. smegmatis and E. coli, respectively. Plasmids were introduced into E. coli and M. smegmatis mc^2155 by electroporation with a Gene Pulser transfection apparatus (Bio-Rad. Richmond, Calif.) and selected on kanamycin (10 or 25 μg/ml).
To obtain support for the notion that the resistance phenotype was a direct result of MarA activity in the cell, insertional mutants targeted to the first helix-turn-helix domain (HTH1) (M. N. Alekshun, et al. Chemother, 41:2067-2075) of the MarA protein were constructed. […] A double-stranded synthetic oligonucleotide with compatible ends was ligated to the NheI sites to produce two distinct insertional mutants interrupting each of the two putative alpha-helical regions (FIG. 1). These mutated genes were cloned into pMV261, as described above, for susceptibility testing in M. smegmatis at 37° C. They were also expressed from the isopropyl-β-D-thiogalactopyranoside (IPTG)-regulated T7 promoter resident on plasmid pET13a for testing in E. coli BL21 (Studier et al. 1990. Methods Enzymol. 185:60). Insertional inactivation of MarA at either helix A or helix B of the first HTH abolished the multidrug resistance phenotype in both E. coli and M. smegmatis the (Table 3 and 4).

[1] = transformant pEC10 (pET13::marA), same gradients
[2] = transformant pET13a (vector), gradient (µg/ml) CML 2.0, TET 1.0, AMP 3.0, NAL 1.0

Row | Compound | resistance compared to the microbe with vector alone (M. smegmatis mc^2155) | % Gowth in antibiotic gradient (E. coli BL21; [1]) | % Gowth in antibiotic gradient (E. coli BL21; [2]) | change in susceptibility in the presence of marA (M. smegmatis mc^2155) | further results
1 | O=C(N[C@H](CO)[C@H](O)c1ccc([N+](=O)[O-])cc1)C(Cl)Cl [CML, chloramphenicol] | increased resistance | 100% | 20 ± 1.1% | – | fold increase of resistance in the presence of marA (M. smegmatis mc^2155): two-fold
2 | CC1(C)S[C@@H]2[C@H](NC(=O)[C@H](N)c3ccccc3)C(=O)N2[C@H]1C(=O)O [AMP, ampicillin] | – | 11 ± 2.0% | 2 ± 1.1% | – | –
3 | CC[C@@H](CO)NCCN[C@@H](CC)CO [ETM, ethambutol] | increased resistance | – | – | – | fold increase of resistance in the presence of marA (M. smegmatis mc^2155): 1.5 fold
4 | CN(C)[C@@H]1C(O)=C(C(N)=O)C(=O)[C@@]2(O)C(O)=C3C(=O)c4c(O)cccc4[C@@](C)(O)[C@H]3C[C@@H]12 [TET, tetracycline] | – | 100% | 33 ± 1.0% | – | % Gowth in antibiotic gradient (E. coli BL21; {}): 33 ± 1.4%
5 | CCn1cc(C(=O)O)c(=O)c2ccc(C)nc21 [NAL, nalidixic acid] | – | 100% | 17 ± 0.8% | Little if any change in susceptibility | –
6 | NNC(=O)c1ccncc1 [INH, isoniazid] | increased resistance | – | – | – | fold increase of resistance in the presence of marA (M. smegmatis mc^2155): 2.5 fold
7 | CCn1cc(C(=O)O)c(=O)c2cc(F)c(N3CCNCC3)cc21 [Nor, norfloxacin] | – | – | – | some increased susceptibility | –
8 | CO[C@H]1/C=C/O[C@@]2(C)Oc3c(C)c(O)c4c(O)c(c(/C=N/N5CCN(C)CC5)c(O)c4c3C2=O)NC(=O)/C(C)=C\C=C\[C@H](C)[C@H](O)[C@@H](C)[C@@H](O)[C@@H](C)[C@H](OC(C)=O)[C@@H]1C [RIF, rifampin] | Increased resistance | – | – | – | resistance in the presence of vector alone (M. smegmatis mc^2155): increased
9 | C[C@@H]1CN(c2c(F)c(N)c3c(=O)c(C(=O)O)cn(C4CC4)c3c2F)C[C@H](C)N1 [sparfloxacin] | – | – | – | Little if any change in susceptibility | –
10 | [H]/N=C(/N)N[C@H]1[C@H](O)[C@@H](O)[C@H](O[C@@H]2O[C@@H](C)[C@](O)(C=O)[C@H]2O[C@@H]2O[C@@H](CO)[C@H](O)[C@@H](O)[C@@H]2NC)[C@@H](N/C(N)=N\[H])[C@@H]1O [streptomycin, streptomycin sulfate] | – | – | – | some increased susceptibility | –
11 | COS(=O)(=O)[O-].C[n+]1c2ccccc2nc2ccccc21 [phenazine methosulfate] | – | – | – | Little if any change in susceptibility | –

Source: patent publication US20100292091A1, “MARA FAMILY HELIX-TURN-HELIX DOMAINS AND THEIR METHODS OF USE” (Trustees of Tufts College, priority 1998, published 2010)
